According to patent publication US8729051B2, “Tri- and tetra-oligo-saccharides suitable as agglutination agents for enteric pathogens” (Nutrition Sciences N.V./S.A., priority 2006, dated 2014):

Columns and labels:
[1] = tested on: E. coli K88 cells; assay: Pathogen agglutination, microscopic analysis; assay type: cell-based; settings: 0.025%, pH 7.0, 10 minutes; versus xylose, penta- and deca-xylo-oligo-saccharides
Method: Tri and/or tetra-manno-oligo-saccharides were incubated in liquid at a dose of 0.025% at pH 7.0 with E. coli K88 and Lactobacillus amylovorus cells for 10 minutes. After 10 minutes, agglutination was visualised by means of microscopic analysis.

[2] = Chicken performance (weight, feed conversion); assay type: in vivo, chickens; settings: feed with 3 ppm flavomycin or 0.025% oligo-saccharides
Excerpt: 3×40 one day old chickens were provided with following feeds: control feed, control feed supplemented with 3 ppm flavomycin and control feed supplemented with 0.025% tri- and/or tetra-manno-oligo-saccharides. The control feed was a mash feed, composed of raw materials suitable for animal nutrition. Water and feed were supplied ad libitum. The chickens were contaminated at day 2 with caecum contents of 3 week old chickens (most critical period for gastrointestinal problems). At regular time intervals, chickens were dissected and the enteric pathogen contents in the small intestine were determined by plate counting on MacConkey agar.
The same experimental conditions were applied as described in experiment 1. In this example, daily growth and feed conversion were monitored after 13 days.

Row | Compound | agglutination, comparison of degree of polymerisation of xylo-oligo-saccharides [1] | Feed conversion/chicken ([2]; after 13 days) | Weight/chicken at day 1 ([2]; day 1) | Weight/chicken at day 13 ([2]; day 13)
1 | OC1OC[C@@H](O[C@@H]2OC[C@@H](O[C@@H]3OC[C@@H](O)[C@H](O)[C@H]3O)[C@H](O)[C@H]2O)[C@H](O)[C@H]1O (some centres unmarked) [tri-xylo-oligo-saccharides] | best agglutination |  |  | 
2 | flavomycin |  | 1.51 | 43.54 | 208.8
3 | tetra-xylo-oligo-saccharides | best agglutination |  |  | 
